Source: PubChem BioAssay (NCI)
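Interpolation was linear, between the two tested concentrations surrounding the appropriate level; five concentrations were tested over 48 hours in 96-well plates. Abbreviation: GI50, concentration required for 50% inhibition of growth. TGI denotes the concentration required for complete inhibition of growth.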

Assays:
Assay in all cases: NCI tumour cell line growth inhibition, 48 h
[1] = test system: SNB-75 CNS
[2] = test system: CCRF-CEM leukemia
[3] = test system: SNB-19 CNS
[4] = test system: OVCAR-8 ovarian
[5] = test system: HOP-62 NSCLC
[6] = test system: KM12 colon
[7] = test system: HT29 colon
[8] = test system: T-47D breast
[9] = test system: A549 NSCLC
[10] = test system: HOP-92 NSCLC

## CC[C@H](NC(=O)[C@H]1CCCCN1C)C(=O)N(C)[C@H](C[C@@H](OC(C)=O)c1nc(C(=O)N[C@@H](Cc2ccccc2)C[C@H](C)C(=O)O)cs1)C(C)C
[1]
  GI50: 0.00528 µM
  TGI: > 14.3 µM
[2]
  GI50: 0.00383 µM
  TGI: > 14.3 µM
[3]
  GI50: 0.00568 µM
  TGI: > 14.3 µM
[4]
  GI50: 0.0166 µM
  TGI: > 14.3 µM
[5]
  GI50: 0.00673 µM
  TGI: > 14.3 µM
[6]
  GI50: 0.00192 µM
  TGI: > 14.3 µM
[7]
  GI50: 0.00388 µM
  TGI: > 14.3 µM
[8]
  GI50: 0.0058 µM
  TGI: > 14.3 µM
[9]
  GI50: 0.0109 µM
  TGI: > 14.3 µM
[10]
  GI50: 0.00585 µM
  TGI: > 6.56 µM

## O=C1C(Cl)=C(Sc2nnc3c4ccccc4c4ccccc4c3n2)C(=O)c2ccccc21
[1]
  TGI: 8.77 µM
[2]
  TGI: 14.5 µM
[3]
  TGI: 36.6 µM
[4]
  TGI: 29.6 µM
[5]
  TGI: 32 µM
[6]
  TGI: 30.7 µM
[7]
  TGI: 62 µM
[8]
  TGI: 19.2 µM
[9]
  TGI: 71.4 µM
[10]
  TGI: 33.2 µM

## COc1cccc(CCC2CCCN(c3cc(C)nc(N)n3)C2)c1 (centres undefined)
[1]
  GI50: 0.194 µM
  TGI: 3.46 µM
[2]
  GI50: 0.34 µM
  TGI: 22.2 µM
[3]
  GI50: 0.521 µM
  TGI: 16 µM
[4]
  GI50: 0.531 µM
  TGI: 8.93 µM
[5]
  GI50: 0.434 µM
  TGI: 6.43 µM
[6]
  GI50: 0.315 µM
  TGI: 12.4 µM
[7]
  GI50: 0.28 µM
  TGI: 1.49 µM
[8]
  GI50: 0.238 µM
  TGI: 8.26 µM
[9]
  GI50: 0.722 µM
  TGI: 15.2 µM
[10]
  GI50: 0.519 µM
  TGI: 11.6 µM

## Nc1c(C(=O)c2ccc(-c3cccnc3)cc2)cnn1-c1ccc(F)cc1
[1]
  GI50: 11.3 µM
  TGI: > 25 µM
[2]
  TGI: > 25 µM
[3]
  GI50: > 25 µM
  TGI: > 25 µM
[4]
  GI50: > 17.5 µM
  TGI: > 25 µM
[5]
  GI50: > 18.7 µM
  TGI: > 25 µM
[6]
  GI50: > 20.8 µM
  TGI: > 25 µM
[7]
  GI50: > 21.6 µM
  TGI: > 25 µM
[8]
  GI50: 9.72 µM
  TGI: > 21.7 µM
[9]
  GI50: > 14.4 µM
  TGI: > 25 µM
[10]
  GI50: > 25 µM
  TGI: > 25 µM

## O=C1CC[C@H](N2C(=O)c3cccc4c(Cc5ccc(CN6CCOCC6)cc5)ccc2c34)C(=O)N1
[1]
  GI50: 2.56 µM
  TGI: > 100 µM
[2]
  GI50: 55.9 µM
  TGI: > 100 µM
[3]
  GI50: > 100 µM
  TGI: > 100 µM
[4]
  GI50: 56.6 µM
  TGI: > 100 µM
[5]
  GI50: 52.3 µM
  TGI: > 100 µM
[6]
  GI50: 79 µM
  TGI: > 100 µM
[7]
  GI50: 28.9 µM
  TGI: > 100 µM
[8]
  GI50: 10.7 µM
  TGI: > 100 µM
[9]
  GI50: 52.6 µM
  TGI: > 100 µM
[10]
  GI50: 8.14 µM
  TGI: > 100 µM

## CCOC(=O)C1=C(C)N=c2s/c(=C\c3ccccc3O)c(=O)n2C1c1ccc(OC)c2ccccc12 (centres undefined)
[1]
  GI50: 2.01 µM
  TGI: 6.11 µM
[2]
  GI50: 23.2 µM
  TGI: > 100 µM
[3]
  GI50: 13.8 µM
  TGI: 67.9 µM
[4]
  GI50: 5.35 µM
  TGI: 22 µM
[5]
  GI50: 4.65 µM
  TGI: 14.6 µM
[6]
  GI50: 9.66 µM
  TGI: > 100 µM
[7]
  GI50: 8.29 µM
  TGI: 25.1 µM
[8]
  GI50: 5.28 µM
  TGI: 22.8 µM
[9]
  GI50: 3.88 µM
  TGI: 16.7 µM
[10]
  GI50: 16.3 µM
  TGI: 35.9 µM

## C=C(C)C1CC/C(C)=C/CCC2(C)OC2CC/C(CO)=C\C1O (centres undefined)
[1]
  TGI: > 100 µM
[2]
  TGI: > 100 µM
[3]
  TGI: > 100 µM
[4]
  TGI: > 100 µM
[5]
  TGI: > 100 µM
[6]
  TGI: > 100 µM
[7]
  TGI: > 100 µM
[8]
  TGI: > 100 µM
[9]
  TGI: > 100 µM
[10]
  TGI: > 100 µM

## Nc1nc2c(ncn2C2CCC(CO)O2)c(=O)n1C(=O)c1ccccc1 (centres undefined)
[1]
  TGI: > 100 µM
[2]
  TGI: > 100 µM
[3]
  TGI: > 100 µM
[4]
  TGI: > 100 µM
[5]
  TGI: > 100 µM
[6]
  TGI: > 100 µM
[7]
  TGI: > 100 µM
[8]
  TGI: > 100 µM
[9]
  TGI: > 100 µM
[10]
  TGI: > 100 µM

## Nc1ccccc1NC(=O)c1ccc(CNc2nccc(-c3cccnc3)n2)cc1
[1]
  GI50: 1.43 µM
  TGI: > 25.4 µM
[2]
  GI50: 0.742 µM
  TGI: > 100 µM
[3]
  GI50: 3.49 µM
  TGI: > 100 µM
[4]
  GI50: 0.541 µM
  TGI: > 100 µM
[5]
  GI50: 1.34 µM
  TGI: > 51.8 µM
[6]
  GI50: 0.886 µM
  TGI: 14.1 µM
[7]
  GI50: 0.364 µM
  TGI: 6.28 µM
[8]
  GI50: 0.657 µM
  TGI: > 22.8 µM
[9]
  GI50: 1.35 µM
  TGI: > 47.6 µM
[10]
  GI50: 0.206 µM
  TGI: 2.7 µM

## Cc1cc(Cl)cc2c(N=Nc3ccc(S(N)(=O)=O)cc3)c(O)[nH]c12
[1]
  GI50: > 15.6 µM
  TGI: > 25 µM
[2]
  GI50: > 25 µM
  TGI: > 25 µM
[3]
  GI50: > 25 µM
  TGI: > 25 µM
[4]
  GI50: > 25 µM
  TGI: > 25 µM
[5]
  GI50: > 25 µM
  TGI: > 25 µM
[6]
  GI50: > 25 µM
  TGI: > 25 µM
[7]
  GI50: > 25 µM
  TGI: > 25 µM
[8]
  GI50: > 25 µM
  TGI: > 25 µM
[9]
  GI50: > 25 µM
  TGI: > 25 µM
[10]
  GI50: > 25 µM
  TGI: > 25 µM

## CC1(C)N=C(N)N=C(N)N1c1ccc(CCCCc2ccccc2)c(Cl)c1
[1]
  GI50: 0.124 µM
  TGI: 5.87 µM
[2]
  GI50: 0.0374 µM
  TGI: 14.2 µM
[3]
  GI50: 0.0746 µM
  TGI: > 35.9 µM
[4]
  GI50: 0.0606 µM
  TGI: > 39.7 µM
[5]
  GI50: 0.0672 µM
  TGI: 5.46 µM
[6]
  GI50: 0.059 µM
  TGI: 1.42 µM
[7]
  GI50: < 0.01 µM
  TGI: 1.55 µM
[8]
  GI50: 0.499 µM
  TGI: 12.8 µM
[9]
  GI50: < 0.01 µM
  TGI: 15 µM
[10]
  GI50: 0.464 µM
  TGI: 4.48 µM

## CSc1ccc(-c2ccccc(=O)c2O)cc1
[1]
  GI50: 3.12 µM
  TGI: > 100 µM
[2]
  GI50: 0.347 µM
  TGI: > 100 µM
[3]
  GI50: 0.57 µM
  TGI: > 100 µM
[4]
  GI50: 0.39 µM
  TGI: 64.8 µM
[5]
  GI50: 0.54 µM
  TGI: 50.9 µM
[6]
  GI50: 0.508 µM
  TGI: > 100 µM
[7]
  GI50: 0.714 µM
  TGI: > 100 µM
[8]
  GI50: 0.985 µM
  TGI: > 100 µM
[9]
  GI50: 0.896 µM
  TGI: 83.8 µM
[10]
  GI50: 1.61 µM
  TGI: 73.3 µM
